Source: US5397781A, “Pyrimidine derivatives” (Mochida Pharmaceutical Company, Limited, priority 1992, dated 1995)

Experiments:
[1] = molecular target: T1, ACAT (Rattus norvegicus, UniProt Q7TQM4); assay: Inhibitory effect on microsomal ACAT activity in rat liver; type: biochemical; conditions: rat liver microsomes; read-out: IC50 (50% inhibition of cholesterol esterification)
T1 construct: Liver microsomes as an enzyme sample of ACAT were prepared from overnight-fasted male rats; from tissue; host or cells: liver of overnight-fasted male rats, 6 weeks old; microsomes
T1 sequence (Q7TQM4 1-524): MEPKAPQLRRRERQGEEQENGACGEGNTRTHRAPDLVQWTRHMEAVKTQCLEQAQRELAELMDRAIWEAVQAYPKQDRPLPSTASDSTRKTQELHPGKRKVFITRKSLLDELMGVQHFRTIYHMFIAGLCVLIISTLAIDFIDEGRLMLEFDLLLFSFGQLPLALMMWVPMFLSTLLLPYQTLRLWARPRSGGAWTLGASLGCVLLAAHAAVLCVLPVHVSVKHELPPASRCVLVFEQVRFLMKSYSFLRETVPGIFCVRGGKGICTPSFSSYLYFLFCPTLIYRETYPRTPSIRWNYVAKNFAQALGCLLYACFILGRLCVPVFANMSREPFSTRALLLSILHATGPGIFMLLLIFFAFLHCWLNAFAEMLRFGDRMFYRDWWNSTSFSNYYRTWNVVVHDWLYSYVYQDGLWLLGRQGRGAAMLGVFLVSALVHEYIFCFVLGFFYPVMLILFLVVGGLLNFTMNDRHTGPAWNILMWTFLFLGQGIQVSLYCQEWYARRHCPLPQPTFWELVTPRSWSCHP

[2] = test system: macrophages; assay: Inhibitory effect on cholesteryl ester accumulation in macrophages; type: cell-based, mouse (ddy-family male mice); conditions: Macrophage; mouse peritoneal macrophages, β-VLDL, [3H]oleic acid, 3 hrs; read-out: Inhibition activity on cholesteryl ester accumulation (IC50 grade)
Description: Inhibitory effect on cholesteryl ester accumulation in macrophages.
Namely resident peritoneal cells suspended in phosphate-buffered saline (PBS) were plated in plastic Petri dishes (35 mm×10 mm) at a density of 2×10^6 cells. The adherent macrophages were cultured overnight at 37° C. in Dalbecco's modified Eagle medium (DME) containing 10% fetal bovine serum (FCS) under humidified 5% CO2. […] After discarding the medium, each macrophage monolayer was washed with PBS and lipids were extracted with hexane/isopropyl alcohol (3:2). Cholesteryl esters in the extract were separated by thin-layer chromatography and the radioactivity was measured by liquid scintillation counter.

[3] = test system: male Wistar rats; assay: Acute toxicity; type: in vivo; conditions: 7 days observation
From the text: The pyrimidine derivatives of the present invention were examined for acute toxicity by using male Wistar rats fasted over night aged 7 weeks old.

[4] = test system: serum total cholesterol; assay: Hypocholesterolemic effect on cholesterol feeding rats; type: in vivo, male Wistar rats; conditions: Rattus norvegicus, oral, high cholesterol diet rats, read-out: % reduction of serum total cholesterol; for inhibition in vivo at 10 mg/kg: 10 mg/kg/day
Description: Hypocholesterolemic effect on cholesterol feeding rats. Male Wistar rats aged 7 weeks old were fed a diet (CE®) supplemented with 2%(w/w) cholesterol, 0.5%(w/w) sodium cholate, 10%(w/w) lard, 0.2%(w/w) propylthiouracyl and 5%(w/w) sucrose, for 3 days. Following 3 days, the compounds of the present invention were administered orally, and the animals were maintained with the high cholesterol diet. On the next day of final drug administration, blood was drown and serum total cholesterol-levels were measured enzymatically by autoanalyzer. CL277082 was used as a reference compound.

SMILES	IC50 [1]	IC50 [2]	lethal incident (acute toxicity) ([3]; single oral dose 2 g/kg)	inhibition in vivo at 30 mg/kg ([4]; 30 mg/kg/day)	lethal incident (acute toxicity) ([3]; single oral dose 1 g/kg)	inhibition in vivo at 10 mg/kg [4]
CCCN(CCCC(=O)Nc1c(S)nc(C)nc1N(CCC)c1ccccc1)c1ccccc1 [Example 143, N-[4-mercapto-2-methyl-6-(N-phenyl-N-propylamino)pyrimidin-5-yl]-4-(N-phenyl-N-propylamino)butanamide]	80 nM	1000 to 10000 nM	no lethal incident was observed	20%		
CCCCCCN(CCCC(=O)Nc1c(S)nc(C)nc1N(CC)CC)c1ccccc1 [Example 155, N-[4-(N,N-diethylamino)-6-mercapto-2-methylpyrimidin-5-yl]-4-(N-hexyl-N-phenylamino)butanamide]	88 nM				no lethal incident was observed	66%
CCCCCCN(CCCC(=O)Nc1c(SC)nc(OC)nc1N(CC)CC)c1ccccc1 [Example 233, N-[4-(N,N-diethylamino)-2-methoxy-6-methylthiopyrimidin-5-yl]-4-(N-hexyl-N-phenylamino)butanamide]					no lethal incident was observed	76%
CCCCN(CCCC)c1nc(C)nc(SC)c1NC(=O)CCCCN(CCC)c1ccccc1 [Example 247, N-[4-(N,N-dibutylamino)-2-methyl-6-methylthiopyrimidin-5-yl]-5-(N-phenyl-N-propylamino)pentanamide]	16 nM	10 to 100 nM			no lethal incident was observed	76%
CCCCCCN(CCCC(=O)Nc1c(SCC)nc(C)nc1N(CC)CC)c1ccccc1 [Example 260, N-[4-(N,N-dietylamino)-6-ethylthio-2-methylpyrimidin-5-yl]-4-(N-hexyl-N-phenylamino)butanamide]					no lethal incident was observed	70%
CCCCCCN(CCCC(=O)Nc1c(SC(C)C)nc(C)nc1N(CC)CC)c1ccccc1 [Example 262, N-[4-(N,N-dietylamino)-6-isopropylthio-2-methylpyrimidin-5-yl]-4-(N-hexyl-N-phenylamino)butanamide]					no lethal incident was observed	53%
